According to patent publication US20240165151A1, “COMPOSITIONS AND METHODS FOR TREATING UPPER RESPIRATORY INFECTIONS” (priority 2020, published 2024):
Where two headings read alike, the source gives them in different places. Marks after values point to notes of the source that are not given here.

Legend:
[1] = test system: Vero 76 cells
[2] = test system: SARS-CoV-2; format: cell-based; conditions: for Virus CCID50 per well ± SD: 22±2°C, average of 3 replicates; for LRV (log reduction value): compared to the virus control
[3] = test system: influenza virus; conditions: cited from earlier work
[4] = test system: SARS-CoV-2; conditions: cited from earlier work

CCO [EtOH (63%), Ethanol]
cytotoxicity in culture [1]: cytotoxic | Virus CCID50 per well ± SD ([2]; contact time 2 minutes): <1.7**** log CCID50 per 0.1 mL | LRV (log reduction value) ([2]; contact time 2 minutes): >2.2 log10 | Virus CCID50 per well ± SD ([2]; contact time 10 minutes): <1.7**** log CCID50 per 0.1 mL | LRV (log reduction value) ([2]; contact time 10 minutes): >2.2 log10

CCOC(=O)C1=C[C@@H](OC(CC)CC)[C@H](NC(C)=O)[C@@H](N)C1 [Oseltamivir]
influenza RNA concentration decrease ([3]; on day 2): −1.19 log10 copies/mL | influenza RNA concentration decrease ([3]; on day 4): −0.68 log10 copies/mL

LY-CoV555: SARS-CoV-2 neutralizing antibody
relative SARS-CoV-2 RNA decrease versus placebo ([4]; day 3): −0.64 log10 copies/mL | relative SARS-CoV-2 RNA decrease versus placebo ([4]; day 7): −0.45 log10 copies/mL
